In US5081234A, “4'-demethylepipodophyllotoxin glycosides” (Bristol-Myers Squibb Co., priority 1990, dated 1992):
≈ marks a conversion by molar mass, not a printed value.

Legend:
[1] = test system: murine P388 lymphocytic leukemia; experiment: In vivo antitumor activity against murine P388 lymphocytic leukemia; set-up: species or system mice (female CDF1); details: median survival time treated/control; P388 i.p. day 0, i.p. once on day 1 (Q1D×1), observed 45 days; maximum T/C, at dose (mg/kg): D 30, E 120, F 60, G 120, H 30, I 10, K 10, Etoposide 120; >125% considered significant
Experimental: Representative compounds of the present invention were evaluated against murine P388 lymphocytic leukemia. Female CDF1 mice were inoculated with 1.0×10^6 of leukemia cells intraperitoneally (day 0), and test materials were intraperitoneally administered to mice once on day 1 (Q1D×1). […] The median survival time (MST) of each group was recorded, and antitumor activity was expressed as T/C % values calculated by the following equation:
T/C%=(MST of treated.div.MST of control)×100

[2] = test system: Murine melanoma B16-F10 cells; experiment: In vitro cytotoxicity vs B16-F10 (72 h, neutral red staining); format: cell-based; details: Mus musculus, neutral red at 540 nm
Experimental: Murine melanoma B16-F10 cells were grown and maintained at 37° C. under a humidified atmosphere in a 5% CO2 incubator in Eagle's MEM medium (Nissui) containing kanamycin (60 μg/ml), and supplemented with heat inactivated fetal calf serum (10%) and non-essential amino acids (0.6%). For in vitro cytotoxicity experiments, exponentially growing B16-F10 cells were harvested, counted, and suspended in the culture medium at the concentration of 2.0×10^4 cells/ml. Twenty-four hours after planting cell suspension (180 μl ) into wells of a 96-well microtiter plate, test materials (20 μl) were added to the wells and the plates were incubated for 72 hours. The cytotoxic activity against B16-F10 cells was colorimetrically determined at 540 nm after staining viable cells with neutral red solution.

Row | SMILES | Antitumor Activity vs P388, Max % T/C [1] [%] | IC50 [2] [µg/mL]
1 | COc1cc([C@@H]2c3cc4c(cc3[C@@H](O[C@@H]3O[C@H](CO)[C@@H](O)[C@H]3O)[C@H]3COC(=O)[C@H]23)OCO4)cc(OC)c1O [Compound D, 4'-Demethyl-4-O-(β-D-ribofuranosyl)epipodophyllotoxin] | 130 | 18 (≈ 33.8 µM)
2 | COc1cc([C@@H]2c3cc4c(cc3[C@@H](O[C@@H]3OC[C@@H](OC(C)=O)[C@@H](OC(C)=O)[C@H]3OC(C)=O)[C@H]3COC(=O)[C@H]23)OCO4)cc(OC)c1O [Compound E, 4'-Demethyl-4-O-(2,3,4-tri-O-acetyl-β-D-ribopyranosyl)epipodophyllotoxin] | 171 | 4 (≈ 6.07 µM)
3 | COc1cc([C@@H]2c3cc4c(cc3[C@@H](O[C@@H]3OC[C@@H](O)[C@@H](O)[C@H]3O)[C@H]3COC(=O)[C@H]23)OCO4)cc(OC)c1O [Compound F, 4'-Demethyl-4-O-(β-D-ribopyranosyl)epipodophyllotoxin] | 181 | 1 (≈ 1.88 µM)
4 | COc1cc([C@@H]2c3cc4c(cc3[C@@H](O[C@@H]3OC[C@H]5OC(C)O[C@H]5[C@H]3O)[C@H]3COC(=O)[C@H]23)OCO4)cc(OC)c1O (stereo partly drawn) [Compound G, 4'-Demethyl-4-O-(3,4-O-ethylidene-β-D-ribopyranosyl)epipodophyllotoxin] | 152 | 2.5 (≈ 4.48 µM)
5 | COc1cc([C@@H]2c3cc4c(cc3[C@@H](O[C@@H]3OC[C@@H](O)[C@H](O)[C@H]3O)[C@H]3COC(=O)[C@H]23)OCO4)cc(OC)c1O [Compound H, 4'-Demethyl-4-O-(β-D-xylopyranosyl)epipodophyllotoxin] | 150 | 0.53 (≈ 0.995 µM)
6 | COc1cc([C@@H]2c3cc4c(cc3[C@@H](O[C@H]3OC[C@@H](O)[C@H](O)[C@H]3O)[C@H]3COC(=O)[C@H]23)OCO4)cc(OC)c1O [Compound I, 4'-Demethyl-4-O-(α-D-xylopyranosyl)epipodophyllotoxin] | 140 | 2.3 (≈ 4.32 µM)
7 | COc1cc([C@@H]2c3cc4c(cc3[C@@H](O[C@H]3OC[C@@H](O)[C@@H](O)[C@@H]3O)[C@H]3COC(=O)[C@H]23)OCO4)cc(OC)c1O [Compound K, 4'-Demethyl-4-O-(α-D-arabinopyranosyl)epipodophyllotoxin] | 125 | 28 (≈ 52.6 µM)
8 | COc1cc([C@@H]2c3cc4c(cc3[C@@H](O[C@@H]3O[C@@H]5CO[C@@H](C)O[C@H]5[C@H](O)[C@H]3O)[C@H]3COC(=O)[C@H]23)OCO4)cc(OC)c1O [Etoposide, reference compound] |  | 0.21 (≈ 0.357 µM)
